# Several values for one entry are separate records, joined by “and”; a condition that tells them apart may be missing. Equal values may be shown once.
# Test system: 616215-338-R-J1-PDC complex spheroids, viability % test/control
# Assay: Anticancer human tumor 616215-338-R-J1-PDC patient-derived colon adenocarcinoma cell line growth inhibition [CLK]
# Settings: for viability, T/C: stronger effect = lower value
# In short: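 Patient-derived tumor cells grown as complex spheroids with HUVEC endothelial cells and mesenchymal stem cells, treated with drug combinations. Concentrations descend in half-log steps from near clinical Cmax, or from 10 microM if Cmax unknown.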
# [1] = curve of first compound, second compound 0.0316 µM
# [2] = curve of first compound, second compound 0.1 µM
# [3] = curve of first compound, second compound 0.316 µM
# [4] = curve of first compound, second compound 1 µM
# [5] = curve of first compound, second compound 3.16 µM
# [6] = curve of first compound, second compound 10 µM
# [7] = second compound 0.0316 µM, first compound 0.0316 µM
# [8] = second compound 0.0316 µM, first compound 0.1 µM
# [9] = second compound 0.0316 µM, first compound 0.316 µM
# [10] = second compound 0.0316 µM, first compound 1 µM
# [11] = second compound 0.0316 µM, first compound 3.16 µM
# [12] = second compound 0.0316 µM, first compound 10 µM
# [13] = second compound 0.1 µM, first compound 0.0316 µM
# [14] = second compound 0.1 µM, first compound 0.1 µM
# [15] = second compound 0.1 µM, first compound 0.316 µM
# [16] = second compound 0.1 µM, first compound 1 µM
# [17] = second compound 0.1 µM, first compound 3.16 µM
# [18] = second compound 0.1 µM, first compound 10 µM
# [19] = second compound 0.316 µM, first compound 0.0316 µM
# [20] = second compound 0.316 µM, first compound 0.1 µM
# [21] = second compound 0.316 µM, first compound 0.316 µM
# [22] = second compound 0.316 µM, first compound 1 µM
# [23] = second compound 0.316 µM, first compound 3.16 µM
# [24] = second compound 0.316 µM, first compound 10 µM
# [25] = second compound 1 µM, first compound 0.0316 µM
# [26] = second compound 1 µM, first compound 0.1 µM
# [27] = second compound 1 µM, first compound 0.316 µM
# [28] = second compound 1 µM, first compound 1 µM
# [29] = second compound 1 µM, first compound 3.16 µM
# [30] = second compound 1 µM, first compound 10 µM
# [31] = second compound 3.16 µM, first compound 0.0316 µM
# [32] = second compound 3.16 µM, first compound 0.1 µM
# [33] = second compound 3.16 µM, first compound 0.316 µM
# [34] = second compound 3.16 µM, first compound 1 µM
# [35] = second compound 3.16 µM, first compound 3.16 µM
# [36] = second compound 3.16 µM, first compound 10 µM
# [37] = second compound 10 µM, first compound 0.0316 µM
# [38] = second compound 10 µM, first compound 0.1 µM
# [39] = second compound 10 µM, first compound 0.316 µM
# [40] = second compound 10 µM, first compound 1 µM
# [41] = second compound 10 µM, first compound 3.16 µM
# [42] = second compound 10 µM, first compound 10 µM
# 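Further: spheroids exposed to agents for 7 days.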
# 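Wherever viability, T/C is given: 100% = DMSO vehicle wells.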
structure (smiles),measurement,setting,value
COc1cccc2c1C(=O)c1c(O)c3c(c(O)c1C2=O)CC(O)(C(=O)CO)CC3OC1CC(N)C(O)C(C)O1 (stereo unspecified) + CNC(=O)c1ccc(Nc2nc(OC3CCCC3)c3c(-c4ccc5nc(C)oc5c4)c[nH]c3n2)c(OC)c1,IC50,[1],328 nM
same,IC50,[2],340 nM
same,IC50,[3],< 31.6 nM
same,IC50,[4],494 nM
same,IC50,[5],548 nM
same,IC50,[6],533 nM
same,"viability, T/C",[7],111%
same,"viability, T/C",[8],72.6%
same,"viability, T/C",[9],54.1%
same,"viability, T/C",[10],34.5%
same,"viability, T/C",[11],1.22%
same,"viability, T/C",[12],0.82%
same,"viability, T/C",[13],53.8%
same,"viability, T/C",[14],57.7%
same,"viability, T/C",[15],42.7%
same,"viability, T/C",[16],35.9%
same,"viability, T/C",[17],0.57%
same,"viability, T/C",[18],0.99%
same,"viability, T/C",[19],55.7%
same,"viability, T/C",[20],47.1%
same,"viability, T/C",[21],46.8%
same,"viability, T/C",[22],42.1%
same,"viability, T/C",[23],0.32%
same,"viability, T/C",[24],0.17%
same,"viability, T/C",[25],49.7%
same,"viability, T/C",[26],61.3%
same,"viability, T/C",[27],75.6%
same,"viability, T/C",[28],30.7%
same,"viability, T/C",[29],0.2%
same,"viability, T/C",[30],0.17%
same,"viability, T/C",[31],61.8%
same,"viability, T/C",[32],66.6%
same,"viability, T/C",[33],81.3%
same,"viability, T/C",[34],28.3%
same,"viability, T/C",[35],0.16%
same,"viability, T/C",[36],2.18%
same,"viability, T/C",[37],58.2%
same,"viability, T/C",[38],56%
same,"viability, T/C",[39],79.7%
same,"viability, T/C",[40],32.4%
same,"viability, T/C",[41],0.24%
same,"viability, T/C",[42],1.24%
Nc1ccccc1NC(=O)c1ccc(CNC(=O)OCc2cccnc2)cc1,"viability, T/C",compound 0.0316 µM,102% and 86.2%
same,"viability, T/C",compound 0.1 µM,98.2% and 95.1%
same,"viability, T/C",compound 0.316 µM,101% and 81.6%
same,"viability, T/C",compound 1 µM,107% and 92.8%
same,"viability, T/C",compound 3.16 µM,55.6% and 80.4%
same,"viability, T/C",compound 10 µM,13.5% and 14.7%
same,IC50,curve of compound,3690 nM and 5380 nM
C#Cc1c(F)ccc2cc(O)cc(-c3ncc4c(N5CC6CCC(C5)N6)nc(OCC56CCCN5CC(F)C6)nc4c3F)c12 (stereo unspecified) + CN1CCN(c2cc(C(=O)Nc3cc4cc(-c5cnn(C)c5)ccc4cn3)ccn2)CC1,IC50,[1],> 10000 nM
same,IC50,[2],> 10000 nM
same,IC50,[3],< 31.6 nM
same,IC50,[4],< 31.6 nM
same,IC50,[5],< 31.6 nM
same,IC50,[6],< 31.6 nM
same,"viability, T/C",[7],93.7%
same,"viability, T/C",[8],91.2%
same,"viability, T/C",[9],109%
same,"viability, T/C",[10],102%
same,"viability, T/C",[11],106%
same,"viability, T/C",[12],99.1%
same,"viability, T/C",[13],101%
same,"viability, T/C",[14],103%
same,"viability, T/C",[15],94.7%
same,"viability, T/C",[16],101%
same,"viability, T/C",[17],102%
same,"viability, T/C",[18],74.7%
same,"viability, T/C",[19],36.2%
same,"viability, T/C",[20],38.8%
same,"viability, T/C",[21],30%
same,"viability, T/C",[22],33.3%
same,"viability, T/C",[23],24.7%
same,"viability, T/C",[24],18.8%
same,"viability, T/C",[25],0.17%
same,"viability, T/C",[26],0.82%
same,"viability, T/C",[27],0.2%
same,"viability, T/C",[28],0.18%
same,"viability, T/C",[29],0.17%
same,"viability, T/C",[30],0.71%
same,"viability, T/C",[31],0.13%
same,"viability, T/C",[32],2.81%
same,"viability, T/C",[33],0.12%
same,"viability, T/C",[34],0.12%
same,"viability, T/C",[35],0.13%
same,"viability, T/C",[36],3.3%
same,"viability, T/C",[37],0.18%
same,"viability, T/C",[38],1.06%
same,"viability, T/C",[39],0.16%
same,"viability, T/C",[40],0.18%
same,"viability, T/C",[41],0.18%
same,"viability, T/C",[42],2.17%
